Data taken from PMC10386514, “Cyclodextrin’s Effect on Permeability and Partition of Nortriptyline Hydrochloride” (Pharmaceuticals, 2023).
Structures can show the parent of a compound that is named as a salt. Where two headings read alike, the source gives them in different places.

Experiments:
[1] = parameters: method as in doi:10.1016/j.molliq.2022.120801; settings: RC vs PP; cited from earlier work
[2] = for distribution coefficient lower than that of AMT•HCl: AMT•HCl values from ref 14; for distribution coefficient higher at buffer pH of 6.8 than at pH of 4.0: no CD; for Dapp hex/buf / Dapp oct/buf / logDapp hex/buf / logDapp oct/buf: 37 °C
Protocol: The apparent distribution coefficients of NTT•HCl ( DappOrg/buf ) in the 1-octanol/buffer ( Dappoct/buf ) and n-hexane/buffer ( Dapphex/buf ) systems were measured at 37 °C via the standard shake-flask method using mutually saturated organic and aqueous solvents, as reported in our earlier studies. The experimental procedure was partially modified in the case of cyclodextrins (both HP-β-CD and SBE-β-CD) in the aqueous phase of the distribution system. Following the respective literature, in the present study, we prepared 1-octanol or n-hexane saturated with a buffer and a buffer saturated with 1-octanol and n-hexane. Three cyclodextrin concentrations (0.0115 M, 0.025 M and 0.035 M) in the aqueous phase were introduced. For the 1-octanol/buffer distribution, the examined solution of NTT•HCl was prepared in 1-octanol saturated with a buffer (C ~ 2 × 10^−3 M), whereas for the n-hexane/buffer system, it was prepared in a buffer saturated with n-hexane (C ~ 2 × 10^−3 M). Taking into account the obtained values of NTT•HCl solubility in the organic solvents and aqueous buffers, equal volumes of the 1-octanolic and buffer phases were prepared, whereas the n-hexane/buffer ratio was 12:2. Two pH values of the aqueous phases were examined: a pH of 4.0 and a pH of 6.8, simulating different segments of the gastro-intestinal tract. The respective volumes of the phases were placed into glass vials and equilibrated in an air thermostat for 3 days at 37 °C. Then, the phases were separated after at least 6 h of storage. The concentrations in both phases were measured using a UV–Vis spectrophotometer (Cary-50, USA Cary-50 Varian, Palo Alto, CA, USA, Software Version 3.00 (339)) with the help of the calibration curves. Each distribution test was carried out at least three times.
The distribution coefficients ( DappOrg/buf ) were determined, taking into account the compound concentrations in the organic ( C2Org ) and buffer ( C2buf ) phases and the volumes of the buffer ( Vbuf ) and organic ( VOrg ) phases:(1) DappOrg/buf=C2Org⋅V^buf/C2buf⋅V^Org

[3] = 37 °C
Protocol: The ∆logD parameter of Seiler was calculated for a single CD concentration in the aqueous phase, equal to 0.0115 M for both HP-β-CD and SBE-β-CD, as follows:(2) ΔlogD=logDappoct/buf−logDapphex/buf

[4] = From the text: To this end, the phase distribution approach fully described in [17] was applied. […] It is evident that, in the presence of cyclodextrins, the distribution coefficient of the compound can be described by the following equation:(3) DappOrg/(buf+CD)=C2Org(drug)/C2buf(drug)+C2buf(drug•CD) where DappOrg/(buf+CD) is the distribution coefficient of the drug in the presence of CD, C2Org and C2buf are the drug concentrations in the organic and aqueous phases, respectively, and C2buf(drug•CD) is the concentration of the drug/cyclodextrin complex in the aqueous phase of the distribution system. As follows from Equation (3), the association constant of the complex can be derived from DappOrg/buf and DappOrg/(buf+CD) at specific CD concentrations using Equation (4). (4) DappOrg/(buf+CD)/DappOrg/buf=1+KC⋅CCD
It can be performed by plotting the following dependence:(5) log(DappOrg/buf−DappOrg/(buf+CD)/DappOrg/buf)=log(KC)+α⋅log(CCD)

[5] = RC vs PP, no CD
Protocol: The permeability coefficients of NTT•HCl were determined in the absence and in the presence of cyclodextrins (HP-β-CD and SBE-β-CD) in the donor solution. A model artificial regenerated cellulose membrane MWCO 12–14 kDa (Standard Grade RC Dialysis Membrane, Flat Width 45 mm) (RC) or a biomimetic PermeaPad barrier (PHABIOC, Germany, www.permeapad.com (accessed on 1 February 2023)) (PP) were placed between the donor and receptor compartments of a vertical type Franz diffusion cell (PermeGear, Inc., Hellertown, PA, USA) with 7 mL/1 mL volumes for the donor and acceptor solutions. The cyclodextrin concentrations were 0.0115 M, 0.025 M and 0.035 M when the RC membrane was used and only 0.035 M in case of the PP barrier. Two different pH values (pH of 4.0 and pH of 6.8) were applied in the donor solution, whereas the receptor chamber was filled with a buffer with a pH of 7.4, modeling the compound’s diffusion to the blood plasma in all the experiments. […] Samples with a volume of 0.5 mL for the receptor solution were withdrawn every 30 min for 5 h and analyzed with a spectrophotometer (Spectramax 190; Molecular Devices Corporation, San Jose, CA, USA) in 96-well UV black plates (Costar, Washington, DC, USA) at a wavelength of 239 nm.
The permeability coefficient was calculated using the NTT•HCl concentration in the donor solution (C0), as follows:(7) Papp=J/C0

[6] = epidermis (ref 18) vs PermeaPad, no CD
[7] = human epidermis, buffer pH of 7.4; cited from earlier work
[8] = cited from earlier work

CN(C)CCC=C1c2ccccc2CCc2ccccc21.Cl [AMT•HCl, amitryptiline hydrochloride]
difference between the coefficients of permeability through the PP and RC [1]: 4.0 fold

CNCCC=C1c2ccccc2CCc2ccccc21 [NTT•HCl, Nortriptyline hydrochloride]
distribution coefficient lower than that of AMT•HCl ([2]; 1-octanol/buffer pH of 4.0): 7 fold
distribution coefficient lower than that of AMT•HCl ([2]; 1-octanol/buffer pH of 6.8): 13 fold
distribution coefficient higher at buffer pH of 6.8 than at pH of 4.0 ([2]; 1-octanol/buffer): 1.33 fold
distribution coefficient higher at buffer pH of 6.8 than at pH of 4.0 ([2]; n-hexane/buffer): 1.61 fold
Dapp hex/buf ([2]; pH 4.0, 0.0115 M HP-β-CD): (4.6 ± 0.1) × 10^−3
Dapp oct/buf ([2]; pH 4.0, 0.0115 M HP-β-CD): 0.299 ± 0.008
logDapp hex/buf ([2]; pH 4.0, 0.0115 M HP-β-CD): −2.34
logDapp oct/buf ([2]; pH 4.0, 0.0115 M HP-β-CD): −0.52
Dapp hex/buf ([2]; pH 4.0, 0.0115 M SBE-β-CD): (3.3 ± 0.1) × 10^−3
Dapp oct/buf ([2]; pH 4.0, 0.0115 M SBE-β-CD): 0.204 ± 0.005
logDapp hex/buf ([2]; pH 4.0, 0.0115 M SBE-β-CD): −2.48
logDapp oct/buf ([2]; pH 4.0, 0.0115 M SBE-β-CD): −0.69
Dapp oct/buf ([2]; pH 4.0, 0.025 M HP-β-CD): 0.154 ± 0.003
logDapp oct/buf ([2]; pH 4.0, 0.025 M HP-β-CD): −0.81
Dapp oct/buf ([2]; pH 4.0, 0.025 M SBE-β-CD): 0.086 ± 0.001
logDapp oct/buf ([2]; pH 4.0, 0.025 M SBE-β-CD): −1.07
Dapp oct/buf ([2]; pH 4.0, 0.035 M HP-β-CD): 0.101 ± 0.001
logDapp oct/buf ([2]; pH 4.0, 0.035 M HP-β-CD): −1.0
Dapp oct/buf ([2]; pH 4.0, 0.035 M SBE-β-CD): 0.013 ± 0.000
logDapp oct/buf ([2]; pH 4.0, 0.035 M SBE-β-CD): −1.89
Dapp hex/buf ([2]; pH 4.0, no CD): (5.6 ± 0.2) × 10^−3
Dapp oct/buf ([2]; pH 4.0, no CD): 4.159 ± 0.080
logDapp hex/buf ([2]; pH 4.0, no CD): −2.23
logDapp oct/buf ([2]; pH 4.0, no CD): 0.62
Dapp hex/buf ([2]; pH 6.8, 0.0115 M HP-β-CD): (8.7 ± 0.1) × 10^−3
Dapp oct/buf ([2]; pH 6.8, 0.0115 M HP-β-CD): 2.613 ± 0.022
logDapp hex/buf ([2]; pH 6.8, 0.0115 M HP-β-CD): −2.06
logDapp oct/buf ([2]; pH 6.8, 0.0115 M HP-β-CD): 0.42
Dapp hex/buf ([2]; pH 6.8, 0.0115 M SBE-β-CD): (8.6 ± 0.3) × 10^−3
Dapp oct/buf ([2]; pH 6.8, 0.0115 M SBE-β-CD): 1.443 ± 0.040
logDapp hex/buf ([2]; pH 6.8, 0.0115 M SBE-β-CD): −2.07
logDapp oct/buf ([2]; pH 6.8, 0.0115 M SBE-β-CD): 0.16
Dapp oct/buf ([2]; pH 6.8, 0.025 M HP-β-CD): 1.993 ± 0.030
logDapp oct/buf ([2]; pH 6.8, 0.025 M HP-β-CD): 0.30
Dapp oct/buf ([2]; pH 6.8, 0.025 M SBE-β-CD): 0.364 ± 0.011
logDapp oct/buf ([2]; pH 6.8, 0.025 M SBE-β-CD): −0.44
Dapp oct/buf ([2]; pH 6.8, 0.035 M HP-β-CD): 1.395 ± 0.025
logDapp oct/buf ([2]; pH 6.8, 0.035 M HP-β-CD): 0.15
Dapp oct/buf ([2]; pH 6.8, 0.035 M SBE-β-CD): 0.227 ± 0.006
logDapp oct/buf ([2]; pH 6.8, 0.035 M SBE-β-CD): −0.64
Dapp hex/buf ([2]; pH 6.8, no CD): (9.5 ± 0.2) × 10^−3
Dapp oct/buf ([2]; pH 6.8, no CD): 5.537 ± 0.111
logDapp hex/buf ([2]; pH 6.8, no CD): −2.02
logDapp oct/buf ([2]; pH 6.8, no CD): 0.74
∆logD ([3]; pH 4.0, 0.0115 M HP-β-CD): 1.82
∆logD ([3]; pH 4.0, 0.0115 M SBE-β-CD): 1.79
∆logD ([3]; pH 4.0, no CD): 2.85
∆logD ([3]; pH 6.8, 0.0115 M HP-β-CD): 2.48
∆logD ([3]; pH 6.8, 0.0115 M SBE-β-CD): 2.23
∆logD ([3]; pH 6.8, no CD): 2.76
KC, association constant of the NTT•HCl/cyclodextrin complex ([4]; HP-β-CD, aqueous phase pH of 4.0, 37 °C): 1.13 ± 0.02 M⁻¹
KC, association constant of the NTT•HCl/cyclodextrin complex ([4]; HP-β-CD, aqueous phase pH of 6.8, 37 °C): 2.01 ± 0.05 M⁻¹
KC, association constant of the NTT•HCl/cyclodextrin complex ([4]; SBE-β-CD, aqueous phase pH of 4.0, 37 °C): 1.14 ± 0.02 M⁻¹
KC, association constant of the NTT•HCl/cyclodextrin complex ([4]; SBE-β-CD, aqueous phase pH of 6.8, 37 °C): 2.24 ± 0.03 M⁻¹
difference between the coefficients of permeability through the PP and RC [5]: 1.6 fold
greater resistance of the epidermis than that of the PermeaPad barrier [6]: 67 fold
coefficient of permeability through epidermis [7]: 0.36 × 10^−6
pKa [8]: 9.23
